# Values quoted from earlier work in publication PMC9050811 (RSC Advances, 2020).
# Experiments:
# DNA supercoiling = conditions: read-out: IC50 in the DNA supercoiling assay; cited from earlier work
# MTB = conditions: cited from earlier work
# MTB H37Rv = conditions: cited from earlier work
Compound,IC50 (DNA supercoiling) [nM],MTB MIC (MTB) [µM],MTB MIC against H37Rv (MTB H37Rv) [µg/mL]
"COc1cnc2ccc(=O)n(CCN3CCN(C(=O)Nc4ccc([N+](=O)[O-])cc4)CC3)c2c1 [4-(2-(7-methoxy-2-oxo-1,5-naphthyridin-1-(2H)-yl)ethyl)-N-(4-nitrophenyl)piperazine-1-carboxamide]",290,3.45,
"O=S(=O)(c1ccccc1)n1cc(CN2CCN(c3nc4ccccc4c4ccccc34)CC2)nn1 [G, 6-(4-((1-(phenylsulfonyl)-1H-1,2,3-triazol-4-yl)methyl)piperazin-1-yl)phenanthridine]",,,1.56
"O=c1nc(N2CCN(C(=S)Nc3ccc(Cl)cc3)CC2)sc2ccc([N+](=O)[O-])cc12 [N-(4-chlorophenyl)-4-(6-nitro-4-oxo-4H-benzo[e][1,3]thiazin-2-yl)piperazine-1-carbothioamide]",510,4.41,
"c1ccc(N2CCN(c3nc4ccccc4c4ccccc34)CC2)nc1 [H, 6-(4-(pyridin-2-yl)piperazin-1-yl)phenanthridine]",,,1.56
